According to patent US20210212967A1, “Treatment of Irritable Bowel Syndrome” (Gruenenthal GmbH, priority 2010, published 2021):

Assays:
[1] = test system: visceral hyperalgesia induced by rectal administration of mustard oil in mice; assay: Mustard oil colitis (visceral pain), curative treatment; format: in vivo
From the text: (§1) The effects of tapentadol hydrochloride on visceral hyperalgesia were studied, which was induced by rectal administration of mustard oil in mice (according to Laird J M, Martinez-Caro L, Garcia-Nicas E, Cervero F. (2001) A new model of visceral pain and referred hyperalgesia in the mouse. Pain 92: 335-42). The typical visceral pain behaviour was quantified in three parameters: During the first minutes after mustard oil administration spontaneous visceral pain behaviour occurs. Following this period of spontaneous pain, referred allodynia and hyperalgesia can be quantified by means of von Frey filaments of different strength stimulating the abdomen of the mice.
(§2) Male NMRI mice (28-38 g body weight) from a commercial breeder (Iffa Credo, France) were used. The animals were housed under standardized conditions: light/dark cycle (06.00-18.00 h light, 18.00-06.00 h dark), room temperature 20-24° C., relative air humidity 35-70%, 15 air changes per hour, air movement <0,2 m/sec, tap water and standard diet ad libitum, macrolon type 4 cages with maximally 30 animals per cage. There were at least 5 days between delivery and start of the experiment.
(§3) Tapentadol hydrochloride was dissolved in vehicle solution and injected intra-venously. • Doses: 2.15/ 4.64/ 10.0 mg/kg i.v. (prophylactic) 10.0/ 21.5/ 31.6 mg/kg i.v. (curative) • Administration volume: 10 ml/kg
(§4) Vehicle solution: 0.9% NaCl solution (Fresenius, Bad Homburg, FRG)
(§5) Mustard oil was dissolved in vehicle solution and administered intra-rectally Dose: 50 μl of a 3.5 Vol-% solution per animal • Vehicle solution: PEG 200
Animals were habituated to the test conditions for 20-30 min and stimulated with von Frey filaments onto the abdominal wall. 10 stimulations with von Frey filaments of 1, 4, 8, 16, and 32 mN were applied in ascending order (i.e. 10×1 mN, 10×4 mN, etc.). Animals with more than 25 positive reactions during this phase were excluded. Vaseline was applied in the perianal area to avoid the stimulation of somatic areas with the irritant chemical. Colitis was induced by rectal administration of […] mustard oil (3.5%). Control animals were treated with vehicle (50 μl PEG200). Group sizes were n =7 for all experiments.
Tapentadol hydrochloride or vehicle was given intravenously (i.v.) 4 hours after mustard oil. Seven animals were tested per group. The following parameters were counted 10 minutes before and at different time points after administration of the test compound or vehicle: • 1. Referred allodynia (number of reactions): counting of withdrawal reactions against 10 stimulations with a 1 mN von Frey filament. • 2. Referred hyperalgesia (referred pain score): counting and scoring of withdrawal reactions against 10 stimulations with a 16 mN von Frey filament (Score 1-3, 1=lifting of abdomen, licking, movement, 2=extrusion or flinching of hind paws, slight jumping, strong licking, 3=strong jumping, vocalisation). Percent of maximal possible effect (% MPE) was calculated for each animal based on the baseline taken 10 min before administration of compound or vehicle.
Significance was calculated by paired T-test (* 0.05≥p>0.01; ** 0.01≥p>0.001; *** p≤0.001. ED50 values and 95% confidence intervals were calculated by linear regression.

[2] = test system: visceral hyperalgesia induced by rectal administration of mustard oil in mice; assay: Mustard oil colitis (visceral pain), prophylactic treatment; format: in vivo; settings: i.v. 5 min before mustard oil
From the text: as §1, §2, §3, §4, §5
Animals were habituated to the test conditions for 20-30 min and stimulated with von Frey filaments onto the abdominal wall. 10 stimulations with von Frey filaments of 1, 4, 8, 16, and 32 mN were applied in ascending order (i.e. 10×1 mN, 10×4 mN, etc.). Animals with more than 25 positive reactions during this phase were excluded. […]
Tapentadol hydrochloride or vehicle was given intravenously (i.v.) 5 min before mustard oil. […] The following parameters were counted: […]

[3] = test system: isolated guinea pig ileum; assay: Twitch contractions of the electrically stimulated isolated guinea pig ileum
Protocol: It was investigated whether tapentadol is able to modulate gastrointestinal motility.
Male guinea pigs (PBW, Charles River, KiBlegg, FRG) weighing 250-350 g were used for the study. The animals were kept under standard housing conditions: light/dark rhythm (06.00-18.00 h light, 18.00-6.00 h dark); room temperature 22±2° C., rel. air humidity 55±5%; 15 air changes per hour, air movement <0,2 m/sec. The animals were given water and an exclusive diet of “Herilan RM 204” (Eggersmann Company, Rinteln/FRG) ad libitum. Before experimental preparation they were kept in groups of up to 5 animals in type IV Makrolon cages (Ebeco Company, Castrop-Rauxel, FRG). There were at least 4 days between delivery and test day.
Tapentadol hydrochloride was dissolved in aqua bidest. Final concentrations in the organ bath ranged from 3·10^−8 to 10^−5 M (cumulative drug application). As opioid antagonist naloxone (10^−6 M) was used.
A four-compartment organ bath (Dept. Biotechnology, Grunenthal GmbH) was employed with 20 ml acrylic glass compartments, organ supports and force transducers (F10 Force transducers, Type 375, HSE, FRG) for the determination of isometric contractions. The organ baths were filled and emptied by means of a semi-automatic dosing arrangement. The nutrient medium in the organ baths was kept at room temperature. In a nutrient storage chamber and in the organ baths the nutrient solution was gassed with carbogen through a frit from 30 min before commencement of the experiment.
The nutrient solution had the following composition:
Parameter: contraction force [g]
Guinea pigs were killed in CO2-atmosphere and the ileum was dissected free from adhering tissue, removed and suspended in the organ bath. After an incubation period of at least 30 min, transmural stimulation pulses were delivered with a duration of 1 ms and an amplitude of 180 mA at 0.03 Hz (Stimulator A310, WPI, FRG) and isometric contractions (Twitch reactions) were recorded. The preparations were pre-tensioned with 1 g. […]
Data were calculated as the mean stimulated contraction force during the period of 4 to 6 min. p. appl. and expressed as percentage of the pre-value. […] All results were expressed as means±s.e.m. of 4 single experiments. For determination of 1050 values, regression lines (y=f log x) were constructed and 1050 values with s.e.m. were calculated using a computer-assisted regression analysis program (Grünenthal GmbH). The reversal of the test compound's activity by the antagonist was expressed as the percentage of the effects of the combination of agonist and antagonist referred to the effects of the test compound alone in the highest concentration according to the following formula: […]

[4] = target: recombinantly produced p-opioid receptor (Homo sapiens, UniProt P35372); settings: relative to morphine; cited from earlier work
[5] = clinical studies; cited from earlier work

Chain of recombinantly produced p-opioid receptor (P35372 whole entry): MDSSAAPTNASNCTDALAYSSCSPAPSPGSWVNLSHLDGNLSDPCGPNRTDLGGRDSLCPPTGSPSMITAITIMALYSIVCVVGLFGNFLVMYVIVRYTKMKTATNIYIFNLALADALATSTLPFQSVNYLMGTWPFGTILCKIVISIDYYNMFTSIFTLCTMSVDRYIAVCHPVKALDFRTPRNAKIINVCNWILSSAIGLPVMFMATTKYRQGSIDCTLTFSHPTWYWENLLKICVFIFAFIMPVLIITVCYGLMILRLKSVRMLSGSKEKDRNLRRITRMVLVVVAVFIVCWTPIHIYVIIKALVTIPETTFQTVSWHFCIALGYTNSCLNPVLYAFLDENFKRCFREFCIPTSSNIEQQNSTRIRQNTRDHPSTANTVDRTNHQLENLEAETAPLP

Compound	efficacy reached at highest dose ([1]; 31.6 mg/kg i.v.)	ED50 referred allodynia (95% confidence intervals) ([1]; i.v. 4 hours after mustard oil, 1 mN von Frey filament)	ED50 referred hyperalgesia (95% confidence intervals) ([1]; i.v. 4 hours after mustard oil, 16 mN von Frey filament)	duration of action in the referred hyperalgesia ([1]; i.v., time course)	time of maximal efficacy after administration ([1]; i.v., time course)	ED50 referred allodynia (95% confidence intervals) ([2]; 1 mN von Frey filament, 20-40 min after mustard oil)	ED50 referred hyperalgesia (95% confidence intervals) ([2]; 16 mN von Frey filament, 20-40 min after mustard oil)	ED50 spontaneous visceral pain behaviour (95% confidence intervals) ([2]; scored 2-12 min after mustard oil)	IC50 ([3]; Cavia porcellus, electrically induced twitch contractions, cumulative application 3·10^−8 to 10^−5 M, mean ± s.e.m. of 4 experiments)	% reversal by naloxone ([3]; naloxone 10^−6 M added after the last application, without wash out)	threshold concentration ([3]; reduction of electrically induced contractions)	Twitch contraction remaining at highest concentration (% of pre-value) ([3]; twitch reaction remaining at highest concentration 10^−5 M, mean ± s.e.m., hydrochloride)	affinity, times less than that of morphine [4]	pain-alleviating action relative to morphine [5]
CC[C@@H](c1cccc(O)c1)[C@@H](C)CN(C)C.Cl [tapentadol hydrochloride, (1 R,2R)-3-(3-dimethylamino-1-ethyl-2-methyl-propyl)-phenol hydrochloride]	Almost full efficacy	21.7 (19.3-25.0) mg/kg i.v.	16.3 (12.5-19.9) mg/kg i.v.	more than 2 h	20 min	3.75 (2.76-4.75) mg/kg i.v.	3.93 (2.32-5.69) mg/kg i.v.	1.47 (0.51-2.28) mg/kg i.v.	1490 ± 200 nM	33.3%	about 10^−7 M	5.77±1.26 % pre-value	–	–
CC[C@@H](c1cccc(O)c1)[C@@H](C)CN(C)C [tapentadol, (1R,2R)-3-(3-dimethylamino-1-ethyl-2-methyl-propyl)-phenol]	–	–	–	–	–	–	–	–	–	–	–	–	18 times	two to three times less than that of morphine
